Measured values from patent US20260262643A1, “HERBICIDAL BENZOXAZINES” (FMC CORPORATION, priority 2022, published 2026).

What was measured:
barnyardgrass [1] = test: Test C preemergence; type: in vivo, Echinochloa crusgalli; details: for Barnyardgrass plant response rating: preemergence; for Plant response rating, Barnyardgrass: Preemergence
Outline: (§1)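 Test material, in non-phytotoxic solvent with surfactant, was sprayed on the soil directly after seeding (preemergence) or on young plants of 2–10 cm with one to two leaves (postemergence). Greenhouse, 10 days; 0–100 visual control scale.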

blackgrass [2] = test: Test C preemergence; type: in vivo, Alopecurus myosuroides; details: for Blackgrass plant response rating: preemergence; for Plant response rating, Blackgrass: Preemergence
Outline: as §1

corn [3] = test: Test C preemergence; type: in vivo, Zea mays; details: for Corn plant response rating: preemergence; for Plant response rating, Corn: Preemergence
Outline: as §1

green foxtail [4] = test: Test C preemergence; type: in vivo, Setaria viridis; details: for Foxtail, Green plant response rating: preemergence; for Plant response rating, Foxtail, Green: Preemergence
Outline: as §1

kochia [5] = test: Test C preemergence; type: in vivo, Bassia scoparia; details: for Kochia plant response rating: preemergence; for Plant response rating, Kochia: Preemergence
Outline: as §1

oat, wild [6] = test: Test C preemergence; type: in vivo, Avena fatua; details: for Oat, Wild plant response rating: preemergence; for Plant response rating, Oat, Wild: Preemergence
Outline: as §1

pigweed, palmer [7] = test: Test C preemergence; type: in vivo, Amaranthus palmeri; details: for Pigweed, Palmer plant response rating: preemergence; for Plant response rating, Pigweed, Palmer: Preemergence
Outline: as §1

ragweed [8] = test: Test C preemergence; type: in vivo, Ambrosia artemisiifolia; details: for Ragweed plant response rating: preemergence; for Plant response rating, Ragweed: Preemergence
Outline: as §1

ryegrass, Italian [9] = test: Test C preemergence; type: in vivo, Lolium multiflorum; details: for Ryegrass, Italian plant response rating: preemergence; for Plant response rating, Ryegrass, Italian: Preemergence
Outline: as §1

soybean [10] = test: Test C preemergence; type: in vivo, Glycine max; details: for Soybean plant response rating: preemergence; for Plant response rating, Soybean: Preemergence
Outline: as §1

wheat [11] = test: Test C preemergence; type: in vivo, Triticum aestivum; details: for Wheat plant response rating: preemergence; for Plant response rating, Wheat: Preemergence
Outline: as §1

barnyardgrass [12] = test: Test C postemergence; type: in vivo, Echinochloa crusgalli; details: 10 days
Outline: as §1

blackgrass [13] = test: Test C postemergence; type: in vivo, Alopecurus myosuroides; details: 10 days
Outline: as §1

corn [14] = test: Test C postemergence; type: in vivo, Zea mays; details: 10 days
Outline: as §1

green foxtail [15] = test: Test C postemergence; type: in vivo, Setaria viridis; details: 10 days
Outline: as §1

kochia [16] = test: Test C postemergence; type: in vivo, Bassia scoparia; details: 10 days
Outline: as §1

oat, wild [17] = test: Test C postemergence; type: in vivo, Avena fatua; details: 10 days
Outline: as §1

pigweed, palmer [18] = test: Test C postemergence; type: in vivo, Amaranthus palmeri; details: 10 days
Outline: as §1

ragweed [19] = test: Test C postemergence; type: in vivo, Ambrosia artemisiifolia; details: 10 days
Outline: as §1

ryegrass, Italian [20] = test: Test C postemergence; type: in vivo, Lolium multiflorum; details: 10 days
Outline: as §1

soybean [21] = test: Test C postemergence; type: in vivo, Glycine max; details: 10 days
Outline: as §1

wheat [22] = test: Test C postemergence; type: in vivo, Triticum aestivum; details: 10 days
Outline: as §1

galium = test: Test C postemergence; type: in vivo, Galium aparine; details: 10 days
Outline: as §1

horseweed = test: Test C postemergence; type: in vivo, Erigeron canadensis; details: 10 days
Outline: as §1

barnyardgrass [23] = test: Test D flooded paddy test; type: in vivo, Echinochloa crus-galli; details: 250 g ai/ha, applied to paddy water, visual rating after 13 to 14 days, scale 0 to 100 (0 no effect, 100 complete control)
Outline: (§2)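 Rating scale 0–100 (0 no effect, 100 complete control), visual, versus controls. Readout at 13–14 days after in-water application to 2-leaf plants in pots flooded 3 cm deep.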

ducksalad = test: Test D flooded paddy test; type: in vivo, Heteranthera limosa; details: 250 g ai/ha, applied to paddy water, visual rating after 13 to 14 days, scale 0 to 100 (0 no effect, 100 complete control)
Outline: as §2

rice = test: Test D flooded paddy test; type: in vivo, Oryza sativa; details: 250 g ai/ha, applied to paddy water, visual rating after 13 to 14 days, scale 0 to 100 (0 no effect, 100 complete control)
Outline: as §2

sedge, umbrella = test: Test D flooded paddy test; type: in vivo, Cyperus difformis; details: 250 g ai/ha, applied to paddy water, visual rating after 13 to 14 days, scale 0 to 100 (0 no effect, 100 complete control)
Outline: as §2

[24] = 500 g ai/ha, 0 to 100 scale (0 no effect, 100 complete control)
[25] = 125 g ai/ha, 0 to 100 scale, 0 no effect, 100 complete control
[26] = 500 g ai/ha, postemergence, 0 to 100 scale (0 no effect, 100 complete control)
[27] = Postemergence, 125 g ai/ha, 0 to 100 scale (0 no effect, 100 complete control)
[28] = 500 g ai/ha, visual rating after 10 days, 0 to 100 scale (0 no effect, 100 complete control)
[29] = Test C, 125 g ai/ha, 0 to 100 scale (0 no effect, 100 complete control)
[30] = 125 g ai/ha, postemergence, 0 to 100 scale, 0 no effect, 100 complete control
[31] = Postemergence, 500 g ai/ha, visual 0 to 100 scale (0 no effect, 100 complete control)

CCOC[C@H]1CN(C(=O)c2cc(-n3cnc(C(C)C)n3)cc3c2OCCO3)c2cccc(Cl)c2O1 [Compound 396]
Barnyardgrass plant response rating (barnyardgrass [1]; [24]): 90 | Plant response rating, Barnyardgrass (barnyardgrass [1]; [25]): 50 | Blackgrass plant response rating (blackgrass [2]; [24]): 40 | Plant response rating, Blackgrass (blackgrass [2]; [25]): 20 | Corn plant response rating (corn [3]; [24]): 40 | Plant response rating, Corn (corn [3]; [25]): 10 | Foxtail, Green plant response rating (green foxtail [4]; [24]): 100 | Plant response rating, Foxtail, Green (green foxtail [4]; [25]): 90 | Kochia plant response rating (kochia [5]; [24]): 90 | Plant response rating, Kochia (kochia [5]; [25]): 70 | Oat, Wild plant response rating (oat, wild [6]; [24]): 90 | Plant response rating, Oat, Wild (oat, wild [6]; [25]): 30 | Pigweed, Palmer plant response rating (pigweed, palmer [7]; [24]): 100 | Plant response rating, Pigweed, Palmer (pigweed, palmer [7]; [25]): 100 | Ragweed plant response rating (ragweed [8]; [24]): 90 | Plant response rating, Ragweed (ragweed [8]; [25]): 80 | Ryegrass, Italian plant response rating (ryegrass, Italian [9]; [24]): 90 | Plant response rating, Ryegrass, Italian (ryegrass, Italian [9]; [25]): 60 | Soybean plant response rating (soybean [10]; [24]): 100 | Plant response rating, Soybean (soybean [10]; [25]): 60 | Wheat plant response rating (wheat [11]; [24]): 30 | Plant response rating, Wheat (wheat [11]; [25]): 0 | Plant response rating, Barnyardgrass (barnyardgrass [12]; [26]): 50 | Plant response rating, Barnyardgrass (barnyardgrass [12]; [27]): 30 | Plant response rating, Blackgrass (blackgrass [13]; [26]): 70 | Plant response rating, Blackgrass (blackgrass [13]; [27]): 30 | Plant response rating, Corn (corn [14]; [26]): 60 | Plant response rating, Corn (corn [14]; [27]): 50 | Plant response rating, Foxtail, Green (green foxtail [15]; [26]): 80 | Plant response rating, Foxtail, Green (green foxtail [15]; [27]): 60 | Plant response rating, Kochia (kochia [16]; [26]): 100 | Plant response rating, Kochia (kochia [16]; [27]): 80 | Plant response rating, Oat, Wild (oat, wild [17]; [26]): 40 | Plant response rating, Oat, Wild (oat, wild [17]; [27]): 20 | Plant response rating, Pigweed, Palmer (pigweed, palmer [18]; [26]): 90 | Plant response rating, Pigweed, Palmer (pigweed, palmer [18]; [27]): 90 | Plant response rating, Ragweed (ragweed [19]; [27]): 70 | Plant response rating, Ryegrass, Italian (ryegrass, Italian [20]; [27]): 0 | Plant response rating, Soybean (soybean [21]; [27]): 100 | Plant response rating, Wheat (wheat [22]; [27]): 20 | Plant response rating, Galium (galium; [26]): 100 | Plant response rating, Galium (galium; [27]): 100 | Plant response rating, Horseweed (horseweed; [26]): 60 | Plant response rating, Horseweed (horseweed; [27]): 0 | Plant response rating, Barnyardgrass (Flood) (barnyardgrass [23]): 0 | Plant response rating, Ducksalad (Flood) (ducksalad): 0 | Plant response rating, Rice (Flood) (rice): 0 | Plant response rating, Sedge, Umbrella (Flood) (sedge, umbrella): 0

Cc1ccc(-n2cnc(C3(C)CCC3)n2)cc1C(=O)N1C[C@H](C)Oc2c(Cl)cccc21 [Compound 167]
Barnyardgrass plant response rating (barnyardgrass [1]; 125 g ai/ha, 0 to 100 scale (0 no effect, 100 complete control)): 90 | Plant response rating, Barnyardgrass (barnyardgrass [1]; [28]): 100 | Plant response rating, Blackgrass (blackgrass [2]; [28]): 70 | Blackgrass plant response rating (blackgrass [2]; [29]): 30 | Plant response rating, Corn (corn [3]; [28]): 0 | Corn plant response rating (corn [3]; [29]): 0 | Plant response rating, Foxtail, Green (green foxtail [4]; [28]): 100 | Foxtail, Green plant response rating (green foxtail [4]; [29]): 100 | Plant response rating, Kochia (kochia [5]; [28]): 100 | Kochia plant response rating (kochia [5]; [29]): 90 | Plant response rating, Oat, Wild (oat, wild [6]; [28]): 50 | Oat, Wild plant response rating (oat, wild [6]; [29]): 20 | Plant response rating, Pigweed, Palmer (pigweed, palmer [7]; [28]): 100 | Pigweed, Palmer plant response rating (pigweed, palmer [7]; [29]): 100 | Plant response rating, Ragweed (ragweed [8]; [28]): 80 | Ragweed plant response rating (ragweed [8]; [29]): 10 | Plant response rating, Ryegrass, Italian (ryegrass, Italian [9]; [28]): 90 | Ryegrass, Italian plant response rating (ryegrass, Italian [9]; [29]): 80 | Plant response rating, Soybean (soybean [10]; [28]): 80 | Soybean plant response rating (soybean [10]; [29]): 40 | Plant response rating, Wheat (wheat [11]; [28]): 0 | Wheat plant response rating (wheat [11]; [29]): 0 | Plant response rating, Barnyardgrass (barnyardgrass [12]; [30]): 20 | Plant response rating, Barnyardgrass (barnyardgrass [12]; [31]): 60 | Plant response rating, Blackgrass (blackgrass [13]; [30]): 0 | Plant response rating, Blackgrass (blackgrass [13]; [31]): 70 | Plant response rating, Corn (corn [14]; [30]): 10 | Plant response rating, Corn (corn [14]; [31]): 20 | Plant response rating, Foxtail, Green (green foxtail [15]; [30]): 50 | Plant response rating, Foxtail, Green (green foxtail [15]; [31]): 90 | Plant response rating, Kochia (kochia [16]; [30]): 90 | Plant response rating, Kochia (kochia [16]; [31]): 100 | Plant response rating, Oat, Wild (oat, wild [17]; [30]): 0 | Plant response rating, Oat, Wild (oat, wild [17]; [31]): 20 | Plant response rating, Pigweed, Palmer (pigweed, palmer [18]; [30]): 90 | Plant response rating, Pigweed, Palmer (pigweed, palmer [18]; [31]): 100 | Plant response rating, Ragweed (ragweed [19]; [30]): 90 | Plant response rating, Ragweed (ragweed [19]; [31]): 90 | Plant response rating, Ryegrass, Italian (ryegrass, Italian [20]; [30]): 20 | Plant response rating, Ryegrass, Italian (ryegrass, Italian [20]; [31]): 80 | Plant response rating, Soybean (soybean [21]; [30]): 100 | Plant response rating, Soybean (soybean [21]; [31]): 100 | Plant response rating, Wheat (wheat [22]; [30]): 10 | Plant response rating, Wheat (wheat [22]; [31]): 20 | Plant response rating, Galium (galium; [30]): 90 | Plant response rating, Galium (galium; [31]): 100 | Plant response rating, Horseweed (horseweed; [30]): 10 | Plant response rating, Horseweed (horseweed; [31]): 30 | Plant response rating, Barnyardgrass (Flood) (barnyardgrass [23]): 0 | Plant response rating, Ducksalad (Flood) (ducksalad): 0 | Plant response rating, Rice (Flood) (rice): 0 | Plant response rating, Sedge, Umbrella (Flood) (sedge, umbrella): 0
